Experimental data: patent publication US20100280035A1, “SOLID PHARMACEUTICAL COMPOSITION COMPRISING 1-(4-CHLOROANILINO)-4-(4-PYRIDYLMETHYL)PHTHALAZINE AND A PH MODIFIER” (priority 2005, published 2010)

Test: Permeability of the Agent in the small intestine

- permeability: good
Structure (SMILES): Clc1ccc(Nc2nnc(Cc3ccncc3)c3ccccc23)cc1.O=C(O)CCC(=O)O [Agent, 1-(4-chloroanilino)-4-(4-pyridylmethyl)phthalazine succinate]
